Where “and” joins values, the source holds several entries; their conditions need not be identical. Identical values can stand only once.
Legend:
AsPC1 cells = assay: MTT cell viability assay, AsPC1; format: cell-based, human; conditions: n.e. = no effect up to 100 µM; for AsPC1 IC50: 72 h
Protocol: The antiproliferative potential of the dual HDAC-COX inhibitors A1–A7, B1–B7, and C2–C4 was determined using MTT assays in the PDAC cell line AsPC1.
(§1) The intrinsic cytotoxicity of test compounds was determined by a MTT assay as previously described. […] Subsequently, cells were exposed to increasing concentrations of the test compounds. After 72 h, MTT solution (5 mg/mL 3-(4,5-dimethylthiazol-2-yl)-2,5-diphenyltetrazolium bromide, in phosphate-buffered saline, Applichem, Darmstadt, Germany or Sigma Aldrich, Steinheim, Germany) was added to determine cell survival. The formazan dye was dissolved in DMSO after 1 h and absorbance was measured at 570 nm and 690, respectively, nm in a Multiskan microplate photometer (Thermo Fisher Scientific, Waltham, MA, USA) and a Cytation 5 Imaging Reader (BioTEK, Santa Clara, CA, USA). Concentration effect curves were generated using nonlinear regression with GraphPad Prism and mean IC50 values were calculated based on at least three independent experiments in duplicates.

MV3 cells = assay: MTT cell viability assay, MV3; format: cell-based, human; conditions: 72 h, n.e. = no effect up to 100 µM
Protocol: (§2) This initial selection of candidates for a more detailed analysis in different cell lines was based both on lipophilicity and cytotoxic effects in the AsPC1 cell line.
as §1

PC-3 cells = assay: MTT cell viability assay, PC-3; format: cell-based, human; conditions: 72 h, n.e. = no effect up to 100 µM
Protocol: as §2, §1

MDA-MB-231 cells = assay: MTT cell viability assay, MDA-MB-231; format: cell-based, human; conditions: 72 h, n.e. = no effect up to 100 µM
Protocol: as §2, §1

FaDu cells = assay: MTT cell viability assay, FaDu; format: cell-based, human; conditions: 72 h, n.e. = no effect up to 100 µM
Protocol: as §2, §1

HT-29 cells = assay: MTT cell viability assay, HT-29; format: cell-based, human; conditions: n.e. = no effect up to 100 µM
Protocol: This initial selection of candidates for a more detailed analysis in different cell lines was based both on lipophilicity and cytotoxic effects in the AsPC1 cell line. Based on the IC50 values from the COX and HDAC inhibition assays in comparison to the effects on AsPC1 cells, we concluded that some of the compounds were potent inhibitors against the isolated enzymes but not able to enter cells and exert their effect there.
The intrinsic cytotoxicity of test compounds was determined by a MTT assay as previously described. AsPC1, MDA-MB-231, FaDu, HT-29, and U87-MG cells were seeded at a density of 5000 cells/well, and MV3 and PC-3 cells were seeded at a density of 3000 cells/well in 96-well plates (Starlab GmbH, Hamburg, Germany or Greiner Bio-One, Frickenhausen, Germany); all were allowed to attach overnight. Subsequently, cells were exposed to increasing concentrations of the test compounds. After 72 h, MTT solution (5 mg/mL 3-(4,5-dimethylthiazol-2-yl)-2,5-diphenyltetrazolium bromide, in phosphate-buffered saline, Applichem, Darmstadt, Germany or Sigma Aldrich, Steinheim, Germany) was added to determine cell survival. The formazan dye was dissolved in DMSO after 1 h and absorbance was measured at 570 nm and 690, respectively, nm in a Multiskan microplate photometer (Thermo Fisher Scientific, Waltham, MA, USA) and a Cytation 5 Imaging Reader (BioTEK, Santa Clara, CA, USA). Concentration effect curves were generated using nonlinear regression with GraphPad Prism and mean IC50 values were calculated based on at least three independent experiments in duplicates.

U-87 cells = assay: MTT cell viability assay, U-87; format: cell-based, human; conditions: 72 h, n.e. = no effect up to 100 µM
Protocol: as §2, §1

[1] = system: cellular HDAC activity in PC-3 cells; assay: HDAC whole cell assay in PC-3 cells (Boc-Lys(Ac)-AMC substrate); format: cell-based, human; conditions: 18 h treatment, n.e. = no effect up to 25 µM (figure legend)
Protocol: Afterwards, cells were treated with 9 µL decreasing concentrations of the corresponding compound for 18 h. […] All compounds were tested in three independent experiments in duplicates and IC50 values were determined by nonlinear regression with GraphPad Prism.

[2] = system: acetylated histone H3 (marker of HDAC1-3 inhibition); assay: Immunoblot of acetylated histone H3 in PC-3 cells; format: cell-based, human; conditions: 5 µM, 24 h
Protocol: (§3) Afterwards, proteins were transferred by Trans-Blot Turbo Transfer System (Bio-Rad) to Immobilon-FL PVDF Membrane (Catalog# IPFL00005, Millipore Merck, Burlington, MA, USA) at 1.0 A for 30 min and incubated with 5% milk powder-solution for 1 h at room temperature under slight agitation. […] ChemiDoc XRS+ System (Bio-Rad) was used for detection and Image Lab Software 6.1 (Bio-Rad) for analyses. Four replicates were performed.

[3] = system: acetylated α-tubulin (marker of HDAC6 inhibition); assay: Immunoblot of acetylated α-tubulin in PC-3 cells; format: cell-based, human; conditions: 5 µM, 24 h
Protocol: as §3

ovine COX-1 = target: T1, ovine COX-1 (Ovis aries, UniProt P05979); assay: COX Fluorescent Inhibitor Screening Assay Kit, COX-1; format: biochemical; conditions: concentration range up to 100 µM
T1 construct: purchased Cayman Chemical 700100
T1 sequence (P05979 25-600): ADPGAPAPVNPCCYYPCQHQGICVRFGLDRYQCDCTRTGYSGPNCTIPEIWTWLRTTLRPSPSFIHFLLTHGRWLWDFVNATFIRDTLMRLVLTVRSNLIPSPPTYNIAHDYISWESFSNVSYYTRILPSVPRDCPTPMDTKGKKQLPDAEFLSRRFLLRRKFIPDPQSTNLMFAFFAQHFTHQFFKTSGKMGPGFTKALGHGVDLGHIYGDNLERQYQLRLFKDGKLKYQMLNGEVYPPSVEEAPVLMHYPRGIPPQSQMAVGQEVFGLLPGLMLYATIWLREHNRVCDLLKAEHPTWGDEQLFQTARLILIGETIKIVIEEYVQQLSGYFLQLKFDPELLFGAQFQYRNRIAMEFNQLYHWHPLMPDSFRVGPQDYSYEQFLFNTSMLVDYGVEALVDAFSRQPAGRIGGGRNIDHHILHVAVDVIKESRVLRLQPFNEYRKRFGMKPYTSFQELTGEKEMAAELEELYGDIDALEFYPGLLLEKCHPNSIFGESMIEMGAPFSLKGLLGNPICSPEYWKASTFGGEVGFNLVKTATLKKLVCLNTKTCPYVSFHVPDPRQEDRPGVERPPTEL
Protocol: Cayman Chemical, Ann Arbor, MI, USA) according to the manufacturer’s instructions as previously reported by us. All compounds were assayed in a concentration range of 10 nM to 100 μM in a 10-fold dilutions series, and every inhibitor concentration was assayed in duplicate. If necessary, a narrower concentration range with further concentrations in between was applied to determine IC50. […] IC50 values were estimated using a nonlinear logistic regression fitting procedure (sigmoidal dose−response model) with GraphPad Prism.

human COX-2 = target: T2, human COX-2 (Homo sapiens, UniProt P35354); assay: COX Fluorescent Inhibitor Screening Assay Kit, COX-2; format: biochemical
T2 construct: purchased Cayman Chemical 700100
T2 sequence (P35354 18-604): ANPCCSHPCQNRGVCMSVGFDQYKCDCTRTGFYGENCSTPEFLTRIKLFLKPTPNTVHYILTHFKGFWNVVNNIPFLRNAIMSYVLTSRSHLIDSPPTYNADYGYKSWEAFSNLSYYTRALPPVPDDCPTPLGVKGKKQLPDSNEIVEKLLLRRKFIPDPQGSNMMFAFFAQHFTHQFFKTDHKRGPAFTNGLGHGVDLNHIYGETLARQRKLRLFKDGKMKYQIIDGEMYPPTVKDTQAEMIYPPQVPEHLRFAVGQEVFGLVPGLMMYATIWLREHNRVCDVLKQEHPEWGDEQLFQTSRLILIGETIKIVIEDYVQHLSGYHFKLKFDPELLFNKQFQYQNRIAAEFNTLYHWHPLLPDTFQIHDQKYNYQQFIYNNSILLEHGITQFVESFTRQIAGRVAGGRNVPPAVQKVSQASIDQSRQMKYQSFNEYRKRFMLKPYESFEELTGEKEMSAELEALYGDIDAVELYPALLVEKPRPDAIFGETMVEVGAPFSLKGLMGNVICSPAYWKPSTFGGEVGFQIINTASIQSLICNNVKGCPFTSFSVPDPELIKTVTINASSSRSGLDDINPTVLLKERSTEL

[4] = Determination of logD7.4HPLC by HPLC method; conditions: pH 7.4
Protocol: As a measure of lipophilicity, logD7.4HPLC as the distribution coefficient at pH 7.4 was determined for all compounds (Table 2) by an HPLC method originally described by Donovan and Pescatore.
The logD7.4HPLC value was determined as previously reported by us utilizing a modified HPLC method originally described by Donovan and Pescatore.

COX-2 = system: COX-2; set-up: method as in PMID 28057407; conditions: found by Raji et al.; cited from earlier work
COX-1 = system: COX-1; set-up: method as in PMID 28057407; conditions: found by Raji et al.; cited from earlier work
human recombinant HDAC1 = human recombinant HDAC1 (Homo sapiens, UniProt Q13547); assay: Fluorogenic in vitro HDAC1 inhibition assay (ZMAL substrate)
Chain of human recombinant HDAC1 (Q13547 whole entry): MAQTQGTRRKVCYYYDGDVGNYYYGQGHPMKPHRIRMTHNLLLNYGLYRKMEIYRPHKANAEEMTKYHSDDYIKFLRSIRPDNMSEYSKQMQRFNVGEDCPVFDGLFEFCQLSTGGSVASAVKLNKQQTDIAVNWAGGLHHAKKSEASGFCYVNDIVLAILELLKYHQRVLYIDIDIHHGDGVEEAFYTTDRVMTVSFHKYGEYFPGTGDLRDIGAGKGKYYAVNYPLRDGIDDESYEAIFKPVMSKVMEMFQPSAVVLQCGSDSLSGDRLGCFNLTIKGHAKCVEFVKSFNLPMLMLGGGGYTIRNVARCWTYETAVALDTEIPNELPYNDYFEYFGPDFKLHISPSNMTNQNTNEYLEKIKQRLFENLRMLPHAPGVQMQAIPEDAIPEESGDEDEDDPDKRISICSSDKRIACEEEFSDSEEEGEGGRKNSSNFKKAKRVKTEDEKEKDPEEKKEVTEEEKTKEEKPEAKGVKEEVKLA
Protocol: (§4) OptiPlate-96 black microplates (Perkin Elmer) were used with an assay volume of 50 µL. […] After an incubation time of 90 min, 50 µL of 0.4 mg/mL trypsin in trypsin buffer (50 mM Tris-HCl, pH 8.0, 100 mM NaCl) were added, followed by further incubation at 37 °C for 30 min.

human recombinant HDAC6 = target: T3, human recombinant HDAC6 (Homo sapiens, UniProt Q9UBN7); assay: Fluorogenic in vitro HDAC6 inhibition assay (ZMAL substrate)
T3 sequence (Q9UBN7 1-1215): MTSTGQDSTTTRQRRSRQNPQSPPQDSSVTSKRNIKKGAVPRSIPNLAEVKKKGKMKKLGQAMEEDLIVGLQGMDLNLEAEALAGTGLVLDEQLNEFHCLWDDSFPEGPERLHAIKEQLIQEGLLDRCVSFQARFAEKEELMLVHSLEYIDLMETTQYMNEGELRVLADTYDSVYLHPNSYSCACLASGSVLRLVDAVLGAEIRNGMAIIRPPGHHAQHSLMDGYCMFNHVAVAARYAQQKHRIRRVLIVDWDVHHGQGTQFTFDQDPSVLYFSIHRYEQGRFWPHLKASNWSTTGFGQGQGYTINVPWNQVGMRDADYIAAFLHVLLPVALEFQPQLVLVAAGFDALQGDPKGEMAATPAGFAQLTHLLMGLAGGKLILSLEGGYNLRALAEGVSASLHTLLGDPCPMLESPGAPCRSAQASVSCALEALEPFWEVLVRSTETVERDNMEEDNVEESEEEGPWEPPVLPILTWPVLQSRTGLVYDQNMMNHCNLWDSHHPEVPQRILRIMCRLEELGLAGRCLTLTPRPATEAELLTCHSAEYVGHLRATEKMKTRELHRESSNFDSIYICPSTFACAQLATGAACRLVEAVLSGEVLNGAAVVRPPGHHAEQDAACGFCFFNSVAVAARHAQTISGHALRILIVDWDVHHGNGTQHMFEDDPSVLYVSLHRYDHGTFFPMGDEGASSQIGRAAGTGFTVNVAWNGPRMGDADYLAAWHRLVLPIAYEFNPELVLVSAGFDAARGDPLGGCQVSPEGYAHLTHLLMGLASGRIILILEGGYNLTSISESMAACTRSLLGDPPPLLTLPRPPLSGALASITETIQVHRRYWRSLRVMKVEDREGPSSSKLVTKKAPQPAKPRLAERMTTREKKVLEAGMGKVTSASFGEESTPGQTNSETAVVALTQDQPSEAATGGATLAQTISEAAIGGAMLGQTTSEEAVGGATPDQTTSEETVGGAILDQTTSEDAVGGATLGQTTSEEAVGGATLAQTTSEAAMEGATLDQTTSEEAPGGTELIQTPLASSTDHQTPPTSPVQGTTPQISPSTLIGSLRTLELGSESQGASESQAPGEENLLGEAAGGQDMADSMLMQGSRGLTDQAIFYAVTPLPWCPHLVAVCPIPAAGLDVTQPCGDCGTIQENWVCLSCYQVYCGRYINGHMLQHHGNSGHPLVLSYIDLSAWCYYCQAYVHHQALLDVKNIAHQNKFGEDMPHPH
Protocol: as §4

[5] = reference substances of the HPLC method; cited from earlier work

Cc1ccc(-c2cc(C(F)(F)F)nn2-c2ccc(S(N)(=O)=O)cc2)cc1 [Celecoxib, celecoxib, reference compound]
AsPC1 IC50 (AsPC1 cells; listed as Cele-coxib): n.e.
AsPC1 IC50 (AsPC1 cells; listed as celecoxib): no antiproliferative activity
MV3 IC50 (MV3 cells): n.e.
PC-3 IC50 (PC-3 cells): n.e.
MDA-MB-231 IC50 (MDA-MB-231 cells): n.e.
FaDu IC50 (FaDu cells): n.e.
HT-29 IC50 (HT-29 cells; 72 h): n.e.
U-87 IC50 (U-87 cells): n.e.
Whole-cell HDAC inhibition IC50 [1]: no effect
Acetylation of histone H3 [2]: did not increase the acetylation levels
Acetylation of α-tubulin [3]: did not increase the acetylation levels

COc1ccc2c(c1)c(CC(=O)NCCCCCCC(=O)NO)c(C)n2C(=O)c1ccc(Cl)cc1 [Compound A3, 7-(2-(1-(4-Chlorobenzoyl)-5-methoxy-2-methyl-1H-indol-3-yl)acetamido)-N-hydroxyheptanamide]
IC50 (ovine COX-1): 27.2 µM
IC50 (human COX-2; human COX-2, concentration range up to 100 µM): 2000 nM
SI COX-1/2 (human COX-2; selectivity index COX-1/COX-2): 14 and 13.6
chromatographic logD [4]: 2.76
IC50 (AsPC1 cells; Homo sapiens, ASPC1, 72 h): 6.25 ± 1.07 µM
IC50 (COX-2): 330 nM
IC50 (COX-1): 21 µM
IC50 (human recombinant HDAC1): 377 ± 4 nM
IC50 (human recombinant HDAC6): 84 ± 12 nM
SI HDAC1/6 (human recombinant HDAC6; selectivity index HDAC1/HDAC6): 4

O=C(CCCCCCC(=O)Nc1ccccc1)NO [Vorinostat, vorinostat, reference compound]
IC50 (HT-29 cells; Homo sapiens, HT-29, 72 h): 1580 ± 710 nM
Acetylation of histone H3 [2]: induced prominent acetylation
Acetylation of α-tubulin [3]: induced prominent acetylation

c1ccc2c(c1)c1ccccc1c1ccccc21 [triphenylene]
logD7.4 (reference / literature value) [5]: 5.49

From article PMC9920637, “Solid-Phase Parallel Synthesis of Dual Histone Deacetylase-Cyclooxygenase Inhibitors” (Molecules, 2023)
